Source: ChEMBL document CHEMBL1777796, “Synthesis and evaluation of carbaborane derivatives of indomethacin as cyclooxygenase inhibitors” (Bioorg Med Chem, 2011)

How the values were obtained:
[1] = biological target: T1, Prostaglandin G/H synthase 1 (Ovis aries, UniProt P05979); test: Inhibition of ovine COX1 assessed as conversion of [14C]-arachidonic acid to [14C]-prostaglandins preincubated for 17 mins by thin-layer chromatography analysis
T1 sequence (P05979 whole entry): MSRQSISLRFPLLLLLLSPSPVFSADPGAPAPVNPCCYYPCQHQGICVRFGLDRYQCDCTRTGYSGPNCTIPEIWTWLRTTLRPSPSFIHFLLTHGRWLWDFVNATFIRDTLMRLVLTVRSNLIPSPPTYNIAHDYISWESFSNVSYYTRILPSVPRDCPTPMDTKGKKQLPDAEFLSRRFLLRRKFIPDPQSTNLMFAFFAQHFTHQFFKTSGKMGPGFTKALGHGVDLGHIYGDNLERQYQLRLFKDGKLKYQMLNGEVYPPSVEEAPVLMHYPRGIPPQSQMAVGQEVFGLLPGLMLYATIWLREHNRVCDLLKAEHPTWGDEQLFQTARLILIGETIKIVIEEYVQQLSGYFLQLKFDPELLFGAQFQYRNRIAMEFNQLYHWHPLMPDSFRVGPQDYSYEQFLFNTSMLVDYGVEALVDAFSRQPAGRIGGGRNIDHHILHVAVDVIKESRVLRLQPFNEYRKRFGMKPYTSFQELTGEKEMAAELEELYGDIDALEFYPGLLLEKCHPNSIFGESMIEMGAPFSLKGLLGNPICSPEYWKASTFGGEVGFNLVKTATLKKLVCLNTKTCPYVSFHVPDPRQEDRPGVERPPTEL

[2] = biological target: T2, Prostaglandin G/H synthase 2 (Mus musculus, UniProt Q05769); test: Inhibition of mouse COX2 assessed as conversion of [14C]-arachidonic acid to [14C]-prostaglandins preincubated for 17 mins by thin-layer chromatography analysis
T2 sequence (Q05769 whole entry): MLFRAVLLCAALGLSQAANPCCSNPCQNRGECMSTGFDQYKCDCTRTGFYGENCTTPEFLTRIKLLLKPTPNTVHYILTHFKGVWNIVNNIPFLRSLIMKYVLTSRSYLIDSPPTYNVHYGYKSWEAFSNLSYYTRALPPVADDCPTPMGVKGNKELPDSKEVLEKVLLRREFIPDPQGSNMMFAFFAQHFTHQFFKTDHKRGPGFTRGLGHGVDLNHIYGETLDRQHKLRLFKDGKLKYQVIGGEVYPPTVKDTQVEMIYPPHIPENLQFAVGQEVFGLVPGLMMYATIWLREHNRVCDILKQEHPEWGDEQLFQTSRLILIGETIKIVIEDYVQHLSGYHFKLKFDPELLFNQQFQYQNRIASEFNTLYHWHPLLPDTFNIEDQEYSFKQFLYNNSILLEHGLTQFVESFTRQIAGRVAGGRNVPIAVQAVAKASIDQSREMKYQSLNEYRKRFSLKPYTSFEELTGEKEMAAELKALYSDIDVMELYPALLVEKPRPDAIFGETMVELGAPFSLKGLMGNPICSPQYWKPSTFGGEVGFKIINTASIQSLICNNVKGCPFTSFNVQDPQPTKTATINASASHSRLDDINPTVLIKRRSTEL

With `COc1ccc2c(c1)c(CC(=O)OC13CC4CC(CC(C4)C1)C3)c(C)n2C(=O)c1ccc(Cl)cc1` the IC50 [1] was over 25 µM and the IC50 [2] was over 25 µM.
